One data set addresses p38 MAPKα (Homo sapiens (Human), UniProt Q16539). The experiment in a line: KINOMEscan dissociation constant, p38 MAPKα. The class given is binding. The source says:
(§1) These assays may be conducted by DiscoverX (formerly Ambit; San Diego, Calif.).

Another data set deals with hERG (Homo sapiens (Human), UniProt Q12809). Put plainly: hERG inhibition, IonWorks patch clamp electrophysiology. The class given is cell-based. As to conditions: human, hERG, read-out: % Inhibition at Top Concentration. The protocol:
(§2) Compounds of the invention were tested for inhibition of the human ether a go-go (hERG) channel using IonWorks™ patch clamp electrophysiology at Essen Bioscience (Welwyn Garden City, England).

The target of data set [1] is human ether a go-go (hERG) channel (Homo sapiens (Human), UniProt Q12809). The description is as above. The class given is cell-based. As to conditions: IonWorks patch clamp. Here is the method:
as §2

The target in a further data set is GSK 3α (Homo sapiens (Human), UniProt P49840). Put plainly: GSK 3α enzyme inhibition (Method 2), Z-LYTE FRET. The format is biochemical. The note with it: read-out: IC50 Values for Enzyme Inhibition GSK3α. The method in brief: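 GSK3-α (500 ng/mL stock) was preincubated with compound at RT for 2 hr (Method 1; 4-0.004 μg/mL stocks) or 105 min (Method 2; 10-0.01 μg/mL stocks). The Z-LYTE FRET peptide (8 μM stock) and ATP (40 μM stock) were then reacted for 1 hr, followed by 1 hr protease development. Phosphorylation was read as the coumarin/fluorescein emission ratio.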

The target of another data set is Lck (Homo sapiens (Human), UniProt P06239). The experiment in a line: KINOMEscan dissociation constant, Lck. The format is binding.
Source text: as §1

The target in the next data set is Syk (Homo sapiens (Human), UniProt P43405). The experiment in a line: KINOMEscan dissociation constant, Syk. The format is binding.
Source text: as §1

In the next data set the target is p38 MAPKα (MAPK14) (Homo sapiens (Human), UniProt Q16539). Put plainly: p38 MAPKα enzyme inhibition (Method 2), Z-LYTE FRET. The format is biochemical. Here is the method: (§3) The enzyme inhibitory activities of compounds disclosed herein are determined by FRET using synthetic peptides labelled with both donor and acceptor fluorophores (Z-LYTE, Invitrogen Ltd., Paisley, UK).
The following two assay variants can be used for determination of p38 MAPKα inhibition.
The inhibitory activities of test compounds against the p38 MAPKα isoform (MAPK14: Invitrogen) are evaluated indirectly by determining the level of activation/phosphorylation of the down-stream molecule, MAPKAP-K2. The p38 MAPKα protein (80 ng/mL, 2.5 μL) is mixed with the test compound (2.5 μL of either 4 μg/mL, 0.4 μg/mL, 0.04 μg/mL or 0.004 μg/mL) for 2 hr at RT. […] The mixture is incubated for 1 hr at RT. Development reagent (protease, 5 μL) is added for 1 hr prior to detection in a fluorescence microplate reader (Varioskan® Flash, ThermoFisher Scientific). […]
(§4) In all cases, the site-specific protease cleaves non-phosphorylated peptide only and eliminates the FRET signal. Phosphorylation levels of each reaction are calculated using the ratio of coumarin emission (donor) over fluorescein emission (acceptor), for which high ratios indicate high phosphorylation and low ratios indicate low phosphorylation levels.

In a further data set the target is c-Src (Homo sapiens (Human), UniProt P12931). The experiment in a line: c-Src enzyme inhibition, Z-LYTE FRET. The format is biochemical. The protocol:
as §3
The inhibitory activities of compounds of the invention against c-Src and Syk enzymes (Invitrogen), are evaluated in a similar fashion to that described hereinabove. The relevant enzyme (3000 ng/mL or 2000 ng/mL respectively, 2.5 μL) is incubated with the test compound (either 1 μg/mL, 0.1 μg/mL, 0.01 μg/mL, or 0.001 μg/mL, 2.5 μL each) for 2 hr at RT. The FRET peptides (8 μM. 2.5 μL), and appropriate ATP solutions (2.5 μL, 800 μM for c-Src, and 60 μM ATP for Syk) are then added to the enzymes/compound mixtures and the mixture incubated for 1 hr. Development reagent (protease, 5 μL) is added for 1 hr prior to detection in a fluorescence microplate reader (Varioskan® Flash, ThermoFisher Scientific).
as §4

Data set [2] is described as follows: Pharmacokinetics and total colon distribution after single oral administration. The class given is in vivo, male C57BL/6 mice. The note with it: male, C57BL/6, mouse, mice, oral 5 mg/kg. The protocol: Studies were conducted by Sai Life Sciences (Hinjewadi, Pune, India) to investigate the systemic pharmacokinetics and total colon tissue distribution of compounds of the invention. In particular, pharmacokinetic studies were carried out in male C57BL/6 mice following a single oral administration of the compound.

For another data set, the target named is B-Raf (Homo sapiens (Human), UniProt P15056). Put plainly: KINOMEscan binding of B-Raf to its standard ligand.
Source text: as §1

The target of a further data set is B-Raf (V600E) (Homo sapiens (Human), UniProt P15056, V600E). The experiment in a line: KINOMEscan binding of B-Raf (V600E) to its standard ligand.
Source text: as §1

In data set [3] the test system is Escherichia coli, WP2 uvrA. Put plainly: Bacterial reverse mutation screen, Escherichia coli.
Data set [4] deals with Salmonella typhimurium, strains TA1535, TA1537, TA98 and TA100. The experiment in a line: Bacterial reverse mutation screen, Salmonella typhimurium.
The mark [5] stands for this setting: plasma, measured cpd = dosed cpd (1 as Na salt, 44 as NH4+ salt), read-out: Mean plasma concentration.
[6] abbreviates: total colon tissue, measured cpd = dosed cpd (1, 19, 47 as Na salt, 44 as NH4+ salt), read-out: total colon level.
Setting [7] is: total colon, measured cpd = dosed cpd (1, 19, 47 as Na salt, 44 as NH4+ salt), read-out: total colon level.

Data on three molecules can be found in US9751837B2, “Kinase inhibitors” (RESPIVERT LIMITED, priority 2014, dated 2017).

Read-outs that look alike come from different tables or passages of the source.

Sequence of Lck (P06239 whole entry): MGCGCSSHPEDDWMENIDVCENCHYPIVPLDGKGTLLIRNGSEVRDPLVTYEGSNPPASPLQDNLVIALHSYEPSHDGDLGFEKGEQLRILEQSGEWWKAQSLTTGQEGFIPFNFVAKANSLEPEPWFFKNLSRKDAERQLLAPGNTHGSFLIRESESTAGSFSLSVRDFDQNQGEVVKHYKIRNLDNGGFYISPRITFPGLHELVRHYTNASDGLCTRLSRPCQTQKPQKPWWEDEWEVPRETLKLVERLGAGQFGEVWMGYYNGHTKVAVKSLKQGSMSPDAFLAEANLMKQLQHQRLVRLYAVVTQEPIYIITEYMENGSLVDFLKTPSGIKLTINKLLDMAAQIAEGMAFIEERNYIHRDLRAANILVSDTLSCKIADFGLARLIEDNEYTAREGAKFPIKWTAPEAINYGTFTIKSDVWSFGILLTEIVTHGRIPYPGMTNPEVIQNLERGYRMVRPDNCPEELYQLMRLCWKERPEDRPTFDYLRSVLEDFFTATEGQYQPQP
Sequence of hERG (Q12809 whole entry): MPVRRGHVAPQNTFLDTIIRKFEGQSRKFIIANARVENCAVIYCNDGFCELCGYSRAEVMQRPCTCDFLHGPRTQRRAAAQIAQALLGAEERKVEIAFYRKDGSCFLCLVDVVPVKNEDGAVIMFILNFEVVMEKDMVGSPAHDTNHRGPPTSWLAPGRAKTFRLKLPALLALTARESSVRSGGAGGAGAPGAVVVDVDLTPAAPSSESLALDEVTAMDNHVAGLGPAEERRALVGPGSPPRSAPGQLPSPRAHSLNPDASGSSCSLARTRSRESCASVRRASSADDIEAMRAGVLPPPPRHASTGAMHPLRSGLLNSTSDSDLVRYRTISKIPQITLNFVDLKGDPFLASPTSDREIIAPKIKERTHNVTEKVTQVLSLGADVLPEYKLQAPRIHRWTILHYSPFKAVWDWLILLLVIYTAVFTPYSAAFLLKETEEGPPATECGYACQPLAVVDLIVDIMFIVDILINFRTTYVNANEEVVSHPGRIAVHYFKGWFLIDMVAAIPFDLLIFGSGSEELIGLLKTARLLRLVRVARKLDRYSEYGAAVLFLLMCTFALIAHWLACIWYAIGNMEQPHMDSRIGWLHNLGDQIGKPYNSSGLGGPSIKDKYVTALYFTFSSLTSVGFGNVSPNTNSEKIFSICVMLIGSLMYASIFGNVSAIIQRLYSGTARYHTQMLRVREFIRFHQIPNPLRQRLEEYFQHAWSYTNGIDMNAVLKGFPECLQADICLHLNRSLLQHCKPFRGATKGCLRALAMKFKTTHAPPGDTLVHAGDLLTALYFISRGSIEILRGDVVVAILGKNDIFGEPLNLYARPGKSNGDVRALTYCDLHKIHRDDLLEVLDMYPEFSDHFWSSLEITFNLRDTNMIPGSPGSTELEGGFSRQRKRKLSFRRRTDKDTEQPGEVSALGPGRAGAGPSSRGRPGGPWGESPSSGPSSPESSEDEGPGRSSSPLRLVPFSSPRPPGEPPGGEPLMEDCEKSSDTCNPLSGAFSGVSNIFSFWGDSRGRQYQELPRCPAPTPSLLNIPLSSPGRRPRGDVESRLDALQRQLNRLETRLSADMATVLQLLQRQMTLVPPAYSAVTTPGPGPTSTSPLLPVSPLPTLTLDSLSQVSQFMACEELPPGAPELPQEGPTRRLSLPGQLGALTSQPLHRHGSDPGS
Sequence of human ether a go-go (hERG) channel (Q12809 whole entry): as above
Sequence of p38 MAPKα (Q16539 whole entry): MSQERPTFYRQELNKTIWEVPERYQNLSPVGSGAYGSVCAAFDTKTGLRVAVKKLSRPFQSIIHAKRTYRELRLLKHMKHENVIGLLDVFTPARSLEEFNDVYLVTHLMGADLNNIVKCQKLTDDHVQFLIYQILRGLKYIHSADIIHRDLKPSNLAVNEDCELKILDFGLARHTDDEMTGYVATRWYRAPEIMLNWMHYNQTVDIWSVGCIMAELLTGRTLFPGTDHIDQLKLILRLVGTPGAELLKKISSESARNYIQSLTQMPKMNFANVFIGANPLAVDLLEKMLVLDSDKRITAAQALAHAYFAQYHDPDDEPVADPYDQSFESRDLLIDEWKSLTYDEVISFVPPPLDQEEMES
Sequence of GSK 3α (P49840 whole entry): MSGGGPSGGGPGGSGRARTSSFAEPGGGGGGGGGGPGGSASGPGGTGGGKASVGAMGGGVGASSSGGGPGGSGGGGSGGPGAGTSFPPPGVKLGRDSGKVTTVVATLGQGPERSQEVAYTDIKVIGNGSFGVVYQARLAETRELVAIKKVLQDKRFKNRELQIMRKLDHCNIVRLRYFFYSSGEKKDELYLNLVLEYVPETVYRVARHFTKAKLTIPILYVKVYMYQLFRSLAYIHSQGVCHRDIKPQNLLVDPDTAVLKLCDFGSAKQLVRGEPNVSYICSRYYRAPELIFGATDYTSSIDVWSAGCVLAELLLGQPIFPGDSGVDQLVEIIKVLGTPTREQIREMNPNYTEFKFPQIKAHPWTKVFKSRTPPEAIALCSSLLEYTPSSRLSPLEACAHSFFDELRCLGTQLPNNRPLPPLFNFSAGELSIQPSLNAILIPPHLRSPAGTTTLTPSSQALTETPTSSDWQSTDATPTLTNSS
Sequence of B-Raf (V600E) (P15056 whole entry V600E): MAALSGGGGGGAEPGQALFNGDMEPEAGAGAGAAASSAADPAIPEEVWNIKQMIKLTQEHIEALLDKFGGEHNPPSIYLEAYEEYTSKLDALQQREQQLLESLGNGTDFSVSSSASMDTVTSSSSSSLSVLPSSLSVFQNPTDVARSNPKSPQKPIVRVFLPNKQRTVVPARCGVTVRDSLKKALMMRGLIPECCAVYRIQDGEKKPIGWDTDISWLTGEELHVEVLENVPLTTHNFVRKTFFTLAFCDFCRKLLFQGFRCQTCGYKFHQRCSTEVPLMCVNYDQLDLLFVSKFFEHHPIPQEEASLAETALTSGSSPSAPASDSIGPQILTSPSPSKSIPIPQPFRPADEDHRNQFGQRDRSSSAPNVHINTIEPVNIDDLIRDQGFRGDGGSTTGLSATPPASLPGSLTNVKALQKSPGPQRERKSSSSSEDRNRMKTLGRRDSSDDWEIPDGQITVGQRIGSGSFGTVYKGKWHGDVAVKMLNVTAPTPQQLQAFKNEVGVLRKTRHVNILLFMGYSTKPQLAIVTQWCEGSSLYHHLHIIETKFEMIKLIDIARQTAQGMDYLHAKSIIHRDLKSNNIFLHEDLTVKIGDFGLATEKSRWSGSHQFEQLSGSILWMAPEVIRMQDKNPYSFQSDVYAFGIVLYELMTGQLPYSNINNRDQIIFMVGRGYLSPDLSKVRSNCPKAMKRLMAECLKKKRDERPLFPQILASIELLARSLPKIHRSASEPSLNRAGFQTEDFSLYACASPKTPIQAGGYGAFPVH
Sequence of B-Raf (P15056 whole entry): as the sequence (P15056 whole entry V600E) above, with E600V counted along it
Sequence of p38 MAPKα (MAPK14) (Q16539 whole entry): as the sequence (Q16539 whole entry) above
Sequence of c-Src (P12931 whole entry, looked up): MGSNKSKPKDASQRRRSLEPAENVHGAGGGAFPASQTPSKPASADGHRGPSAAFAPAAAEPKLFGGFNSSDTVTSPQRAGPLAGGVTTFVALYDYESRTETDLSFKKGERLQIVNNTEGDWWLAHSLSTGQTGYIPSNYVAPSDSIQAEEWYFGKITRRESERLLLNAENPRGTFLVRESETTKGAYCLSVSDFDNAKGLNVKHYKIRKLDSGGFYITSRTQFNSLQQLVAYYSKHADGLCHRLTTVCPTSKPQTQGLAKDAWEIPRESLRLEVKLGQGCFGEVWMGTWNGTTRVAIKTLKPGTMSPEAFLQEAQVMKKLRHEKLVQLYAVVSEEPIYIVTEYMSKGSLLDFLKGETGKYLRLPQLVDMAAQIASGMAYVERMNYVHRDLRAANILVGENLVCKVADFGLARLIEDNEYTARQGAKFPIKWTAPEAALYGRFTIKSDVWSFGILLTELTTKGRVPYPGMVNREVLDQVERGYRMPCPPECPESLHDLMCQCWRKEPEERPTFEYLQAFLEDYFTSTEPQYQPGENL

Turning to `COc1cc(Nc2cc(Oc3ccc(NC(=O)Nc4cc(C(C)(C)C)cc(NS(C)(=O)=O)c4OC)c4ccccc34)ccn2)ccc1C(=O)NCCN1CCOCC1` [Example 2, 4-((4-((4-(3-(5-(tert-Butyl)-2-methoxy-3-(methylsulfonamido)phenyl)ureido)naphthalen-1-yl)oxy)pyridin-2-yl)amino)-2-methoxy-N-(2-morpholinoethyl)benzamide], the dissociation constant (Kd) on p38 MAPKα came to 23 nM; at Lck, 5.8 nM; on Syk, 18 nM. At hERG (3 μM), the inhibition at 3 µM was -2%. Further, the IC50 is > 3300 nM in data set [1] and 2300 nM at GSK 3α.

Turning to `COc1c(NC(=O)Nc2ccc(Oc3ccnc(Nc4ccc(C(=O)NCCN5CCOCC5)cc4)c3)c3ccccc23)cc(C(C)(C)C)cc1NS(C)(=O)=O` [17(u), 4-[[4-[[4-[[5-tert-butyl-3-(methanesulfonamido)-2-methoxy-phenyl]carbamoylamino]-1-naphthyl]oxy]-2-pyridyl]amino]-N-(2-morpholinoethyl)benzamide], the half-maximal inhibitory concentration (IC50) on p38 MAPKα (MAPK14) was found to be 66 nM; on c-Src, 32 nM.

Regarding `COc1cc(Nc2cc(Oc3ccc(NC(=O)Nc4cc(C(C)(C)C)cc(NS(C)(=O)=O)c4OC)c4ccccc34)ccn2)ccc1P(C)(=O)O` [Example 44, (4-((4-((4-(3-(5-(tert-Butyl)-2-methoxy-3-(methylsulfonamido)phenyl)ureido)naphthalen-1-yl)oxy)pyridin-2-yl)amino)-2-methoxyphenyl)(methyl)phosphinic acid], the Kd worked out at 1.9 nM on p38 MAPKα, 5.3 nM on Lck and 6.6 nM on Syk. On hERG (11 μM), the inhibition at 11 µM amounted to 18%. Moreover, the IC50 in data set [1] was > 11000 nM. The figures for the concentration at 0.5 h in [2] (setting [5]) and in data set [2] (setting [7]) were 0 ng/mL and 0 ng/g, respectively. Further, the concentration at 1 h in data set [2] (setting [5]) was found to be 0 ng/mL; in [2] (setting [7]), 0 ng/g. In addition, the concentration at 2 h came to 0 ng/mL in data set [2] (setting [5]) and 2330 ng/g in [2] (setting [6]). The results for the concentration at 4 h in data set [2] (setting [5]) and in [2] (setting [6]) were 0 ng/mL and 1750 ng/g, respectively. Further, the concentration at 6 h in data set [2] (setting [5]) is 0 ng/mL; in [2] (setting [6]), 450 ng/g. Moreover, the values for the concentration at 8 h in data set [2] (setting [5]) and in data set [2] (setting [6]) were 0 ng/mL and 915 ng/g, respectively. Moreover, the results for the concentration at 12 h in [2] (setting [5]) and in data set [2] (setting [6]) were 0 ng/mL and 180 ng/g, respectively. The values for the concentration at 24 h in data set [2] (setting [5]) and in data set [2] (setting [7]) were 0 ng/mL and 0 ng/g, respectively. Besides, the “effect on the binding of B-Raf to its standard ligand” value on B-Raf is “did not have any significant effect”. Further, the “effect on the binding of B-Raf (V600E) to its standard ligand” value on B-Raf (V600E) is listed as “did not have any significant effect”. Also, the “dose with reduction in the mean colony count (toxicity to the bacteria)” value in data set [3] (absence of S-9 mix) was 5000 μg/plate; in data set [4] (TA98, presence of S-9 mix), 5000 μg/plate; in data set [4] (TA100, presence of S-9 mix), 5000 μg/plate; in [4] (TA1535, presence of S-9 mix) it was 5000 μg/plate; in [4] (TA1537, presence of S-9 mix), 5000 μg/plate. Besides, the “mutagenic effects (revertant numbers)” value in [3] (presence or absence of S-9 mix, plate incorporation) is “absence of any mutagenic effects”; in data set [4] (TA1535, TA1537, TA98, TA100, presence or absence of S-9 mix, plate incorporation), “absence of any mutagenic effects”. Further, the “limit of solubility in the mutation test” value in data set [4] (all strains, presence and absence of S-9 mix, plate incorporation) was 5000 μg/plate.
